In brackets after ≈: the same amount, converted by molar mass. Where two headings read alike, the source gives them in different places.
Legend:
S. aureus ATCC BAA-1720 = test: Time-kill assay; type: cell-based, Staphylococcus aureus; settings: for Bactericidal activity in time-kill (reduction of 3 log10 CFU/ml): 1× to 4× MIC, over 24 hours
S. aureus ATCC 29213 [1] = test: Post-antibiotic effect (PAE); type: cell-based, Staphylococcus aureus; settings: 1-hour exposure, range over 1×, 4× and 16× MIC
Method: A drug-free control was included in each experiment. After being exposed to the drug for 1 hour, viable counts were conducted in triplicate by spotting aliquots (10 μl) of suitable dilutions onto MHA plates. The drugs were removed by diluting the bacterial cultures (1:1000) in Cation-Adjusted Mueller-Hinton Broth (CAMHB; Sigma-Aldrich). The diluted cultures were incubated in a shaking bath at 37°C. To monitor the ongoing suppression of bacterial growth over time (5 hours), aliquots from each broth culture were periodically collected, diluted and plated to perform subsequent viable counts (in triplicate).

[2] = tested on: HepG2 mammalian cell line; test: Cytotoxicity assay (CellTiter-Blue); type: cell-based; settings: Homo sapiens, HepG2, 24 hours of incubation, read-out: IC50 mammalian cell viability
Method: Cytotoxicity assay. Cytotoxicity of compounds 1 and 2 was assessed, after 24 hours of incubation in EMEM containing 10% fetal bovine serum, HepG2 mammalian cell line viability was evaluated using CellTiter-Blue Cell Viability Assay (Promega, WI, USA) according to the manufacturer’s instructions. Concentration-response curves were obtained by non-linear regression analysis using the GraphPad PRISM 6 software.

S. aureus ATCC 29213 [3] = type: cell-based, Staphylococcus aureus
E. coli ATCC 25922 = test: Minimal bactericidal concentration; type: cell-based, Escherichia coli; settings: for MBC: Escherichia coli, ATCC25922, ≥99.9% reduction of inoculum
Method: Minimal bactericidal concentrations (MBCs) were determined according to the procedure described by Knapp. Viable counts were performed after plates were incubated at 37°C for 24 hours. The MBC was defined as the lowest concentration that reduced the viability of the initial bacterial inoculum by ≥99.9%.

Row | Structure (SMILES) | Bactericidal activity in time-kill (reduction of 3 log10 CFU/ml) (S. aureus ATCC BAA-1720) | Concentration with bactericidal activity in time-kill (S. aureus ATCC BAA-1720; 4× MIC, after a 24 hour incubation) [µg/mL] | PAE (S. aureus ATCC 29213 [1]) [min] | IC50 [2] [µM] | IC50 ([2]; same value in μg/ml) [µg/mL] | In vitro frequency of resistant mutants (S. aureus ATCC 29213 [3]; S. aureus ATCC 29213, 2×MIC) | In vitro frequency of resistant mutants (S. aureus ATCC 29213 [3]; S. aureus ATCC 29213, 4×MIC) | MBC/MIC (E. coli ATCC 25922) | MBC (E. coli ATCC 25922) [µg/mL]
1 | O=C1COc2ncc(F)cc2N1[C@H]1CC[C@H](NCc2cc3c(=O)oc4ccc(F)cc4c3[nH]2)CC1 [Compound 1, 8-fluoro-2-({[trans-4-(7-fluoro-2-oxo-2,3-dihydro-1H-pyrido[2,3-b][1,4]oxazin-1-yl)cyclohexyl]amino}methyl)[1]benzopyrano[4,3-b]pyrrol-4(1H)-one] | bactericidal effect | 2 | 54 to 58 | 9 | 4 | TNTC | 1.4×10^−7 | 2 | 1 (≈ 2.08 µM)
2 | Cl.N#Cc1ccc2ccc(=O)n([C@H]3CC[C@H](NCc4cc5c(=O)oc6ccc(F)cc6c5[nH]4)CC3)c2c1 [Compound 2, 1-(trans-4-{[(8-fluoro-4-oxo-1,4-dihydro[1]benzopyrano[4,3-b]pyrrol-2-yl)methyl]amino}cyclohexyl)-2-oxo-1,2-dihydroquinoline-7-carbonitrile hydrochloride] | no bactericidal activity | – | 73 to 78 | > 300 | > 145 | 6.7×10^−7 | – | 2 | 1
